# Source: US9837801B2, “Gas-insulated medium or high-voltage electrical apparatus including carbon dioxide, oxygen, and heptafluoro-isobutyronitrile” (Alstom Technology Ltd., priority 2013, dated 2017)
# Test: Toxicity (LC50, lethal concentration 50%)
# Format: in vivo
# Description: In addition, […], toxicity is further reduced by […], which classifies it in the field of gases considered to be “practically non-toxic” (toxicity classification 5, according to the Hodge and Sterner toxicity scale).
structure (smiles),measurement,setting,value
"N#CC(F)(C(F)(F)F)C(F)(F)F [Heptafluoroisobutyronitrile, 2,3,3,3-tetrafluoro-2-trifluoromethyl propanenitrile]",specific toxicity for humans,humans,no specific toxicity
same,"LC50 (lethal concentration, 50%)",pure heptafluoroisobutyronitrile,"greater than 15,000 ppm"
